Results taken from patent US20240116985A1, “STAPLED PEPTIDES AND METHODS THEREOF” (priority 2020, published 2024).
Like-named read-outs stand apart in the source and are kept apart here.

Assays:
[1] = target: T1, beta-catenin/TCF4 engagement (Homo sapiens, UniProt P35222); assay: Nano-BRET target engagement assay (B-cat-Halo & TCF4-Luc in HEK293 cells); assay type: cell-based; details: absolute IC50
T1 construct: expressed in transfected cells; host or cells: HEK293
T1 sequence (P35222 1-781): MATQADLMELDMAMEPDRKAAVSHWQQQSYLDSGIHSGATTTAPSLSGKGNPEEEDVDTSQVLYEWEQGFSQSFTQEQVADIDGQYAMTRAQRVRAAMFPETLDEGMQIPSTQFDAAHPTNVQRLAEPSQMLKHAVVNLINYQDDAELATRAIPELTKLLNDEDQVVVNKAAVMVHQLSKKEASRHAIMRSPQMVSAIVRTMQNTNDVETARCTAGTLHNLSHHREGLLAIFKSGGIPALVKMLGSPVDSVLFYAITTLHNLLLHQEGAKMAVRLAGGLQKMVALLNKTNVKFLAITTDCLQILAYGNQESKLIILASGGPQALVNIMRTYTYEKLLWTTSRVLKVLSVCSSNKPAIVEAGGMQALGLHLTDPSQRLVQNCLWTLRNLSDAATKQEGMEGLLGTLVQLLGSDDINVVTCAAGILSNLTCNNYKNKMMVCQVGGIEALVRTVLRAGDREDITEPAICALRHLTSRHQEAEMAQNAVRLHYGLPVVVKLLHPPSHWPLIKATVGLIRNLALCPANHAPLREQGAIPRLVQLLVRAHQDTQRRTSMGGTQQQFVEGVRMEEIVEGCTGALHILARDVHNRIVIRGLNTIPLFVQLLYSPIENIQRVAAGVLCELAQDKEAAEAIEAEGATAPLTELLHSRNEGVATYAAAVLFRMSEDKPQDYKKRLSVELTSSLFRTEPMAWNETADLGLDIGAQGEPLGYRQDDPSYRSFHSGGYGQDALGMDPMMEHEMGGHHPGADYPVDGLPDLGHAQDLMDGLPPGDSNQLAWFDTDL

[2] = target: T2, full-length beta-Catenin (Uniprot ID P35222) (Homo sapiens, UniProt P35222); assay: Fluorescence polarization IC50 (beta-catenin / 5FAM-TCF4 10-53 competition); assay type: binding; details: fluorescence polarization
T2 construct: 10 nM full-length beta-Catenin (Uniprot ID P35222)
T2 sequence (P35222 1-781): T1 sequence (P35222 1-781)

| IC50 ([1]; read-out: NanoBRET Abs IC50) | IC50 ([2]; read-out: beta-Catenin FP IC50) | Structure (SMILES) | IC50 ([1]; NanoBRET Abs IC50 (uM)) | IC50 ([2]; beta-Catenin FP IC50 (nM)) |
| --- | --- | --- | --- | --- |
| > 20 µM | 22 nM | CC(=O)N1CCC[C@]12CC=CCCCC1(CCCC=CCCCOC(=O)N3CC[C@@](C(=O)N[C@@H](Cc4ccsc4)C(=O)N[C@@H](Cc4csc5ccccc45)C(=O)N[C@@H](CCC(N)=O)C(N)=O)(C3)NC(=O)[C@H](CC(C)C)NC(=O)[C@H](Cc3ccccc3)NC(=O)[C@H](C)NC(=O)[C@H](C)NC(=O)[C@H](Cc3c[nH]cn3)NC(=O)[C@H](CC(=O)O)NC1=O)NC(=O)[C@H](CC(C)(C)C)NC(=O)[C@H](CC(=O)O)NC2=O (stereo partly drawn) [I-1796, Ac-PL3-Asp-Npg-B5-Asp-His-Ala-Ala-Phe-Leu-PyrS2-3Thi-BztA-Gln-NH2] |  |  |
| 43.4 µM | 11 nM | CC(=O)N1CCC[C@]12CC=CCCCC1(CCCC=CCCCOC(=O)N3CC[C@@](C(=O)N[C@@H](Cc4ccccc4Cl)C(=O)N[C@@H](Cc4csc5ccccc45)C(=O)N[C@@H](CCC(N)=O)C(N)=O)(C3)NC(=O)[C@H](CC(N)=O)NC(=O)[C@H](Cc3ccccc3)NC(=O)[C@H](C)NC(=O)[C@H](C)NC(=O)[C@H](CN(CC(=O)O)Cc3ccccc3)NC(=O)[C@H](CC(=O)O)NC1=O)NC(=O)[C@H](CC(C)(C)C)NC(=O)[C@H](CC(=O)O)NC2=O (stereo partly drawn) [I-1447, Ac-PL3-Asp-Npg-B5-Asp-[Bn]GA-Ala-Ala-Phe-Asn-PyrS2-2C1F-BztA-Gln-NH2] |  |  |
| > 20 µM | 72 nM | CC(=O)N1CCC[C@]12CC=CCCCC1(CCCC=CCCCCCC[C@@](C)(C(=O)N[C@@H](Cc3ccccc3)C(=O)N[C@@H](Cc3csc4ccccc34)C(=O)N[C@@H](CCC(N)=O)C(N)=O)NC(=O)[C@H](CCO)NC(=O)[C@H](Cc3ccccc3)NC(=O)[C@H](C)NC(=O)[C@H](C)NC(=O)[C@H](CCC(=O)O)NC(=O)[C@H](CC(=O)O)NC1=O)NC(=O)[C@H](CC(N)=O)NC(=O)[C@H](CC(=O)O)NC2=O (stereo partly drawn) [I-1535, Ac-PL3-Asp-Asn-B5-Asp-Glu-Ala-Ala-Phe-Hse-S8-Phe-BztA-Gln-NH2] |  |  |
| 29.3 µM | 180 nM | CC(=O)N1CCC[C@]12CC=CCCCC1(CCCC=CCCCOC(=O)N3CC[C@@](C(=O)N[C@@H](Cc4ccsc4)C(=O)N[C@@H](Cc4csc5ccccc45)C(=O)N[C@@H](CCC(N)=O)C(N)=O)(C3)NC(=O)[C@H](CC(N)=O)NC(=O)[C@H](Cc3ccccc3)NC(=O)[C@H](C)NC(=O)[C@H](C)NC(=O)[C@H](CC(N)=O)NC(=O)[C@H](CC(N)=O)NC1=O)NC(=O)[C@H](CC(C)(C)C)NC(=O)[C@H](CC(=O)O)NC2=O (stereo partly drawn) [I-1555, Ac-PL3-Asp-Npg-B5-Asn-Asn-Ala-Ala-Phe-Asn-PyrS2-3Thi-BztA-Gln-NH2] |  |  |
|  |  | CC(=O)N1CCC[C@]12CC=CCCCC1(CCCC=CCCCOC(=O)N3CC[C@@](C(=O)N[C@@H](Cc4ccccc4)C(=O)N[C@@H](Cc4csc5ccccc45)C(=O)N[C@@H](CC(=O)N4CCOCC4)C(N)=O)(C3)NC(=O)[C@H](CC(C)C)NC(=O)[C@H](Cc3ccccc3)NC(=O)[C@H](C)NC(=O)[C@H](CCCCNC(=O)c3ccccc3)NC(=O)[C@H](CCC(N)=O)NC(=O)[C@H](CC(=O)O)NC1=O)NC(=O)[C@H](CC1CCCCC1)NC(=O)[C@H](CC(N)=O)NC2=O (stereo partly drawn) [I-2523, Ac-PL3-Asn-Cha-B5-Asp-Gln-[Phc]Lys-Ala-Phe-Leu-PyrS2-Phe-BztA-MorphAsn-NH2] | > 20 µM | 1730 nM |
| 7.4 µM | 20 nM | CC(=O)N1CCC[C@]12CC=CCCCC1(CCCC=CCCCOC(=O)N3CC[C@@](C(=O)N[C@@H](Cc4ccsc4)C(=O)N[C@@H](Cc4csc5ccccc45)C(=O)N[C@@H](CCC(=O)N4CCN(CC(F)(F)F)CC4)C(N)=O)(C3)NC(=O)[C@H](CC(C)C)NC(=O)[C@H](Cc3ccccc3)NC(=O)[C@H](C)NC(=O)[C@H](C)NC(=O)[C@H](CN(CC(=O)O)CC(F)(F)F)NC(=O)[C@H](CC(=O)O)NC1=O)NC(=O)[C@H](CC(C)(C)C)NC(=O)[C@H](CC(=O)O)NC2=O (stereo partly drawn) [I-1803, Ac-PL3-Asp-Npg-B5-Asp-TfeGA-Ala-Ala-Phe-Leu-PyrS2-3Thi-BztA-[TfePpz]GlnR-NH2] |  |  |
| 4.5 µM | 2860 nM | CC(=O)N1CCC[C@]12CC=CCCCC1(CCCC=CCCCOC(=O)N3CC[C@@](C(=O)N[C@@H](Cc4ccsc4)C(=O)N[C@@H](Cc4csc5ccccc45)C(=O)N[C@@H](CC(N)=O)C(=O)N[C@@H](C)C(=O)N[C@@H](CC(C)C)C(=O)N[C@@H](C)C(=O)N[C@@H](CC(C)C)C(=O)N[C@@H](C)C(=O)N[C@@H](CC(C)C)C(=O)N[C@@H](C)C(N)=O)(C3)NC(=O)[C@H](CC(C)C)NC(=O)[C@H](Cc3ccccc3)NC(=O)[C@H](C)NC(=O)[C@H](C)NC(=O)[C@H](Cc3cccc(C(=O)O)c3)NC(=O)[C@H](CC(=O)O)NC1=O)NC(=O)[C@H](CC(C)(C)C)NC(=O)[C@H](CC(=O)O)NC2=O (stereo partly shown) [I-2283] |  |  |
| 6.7 µM | 5 nM | CC(=O)N1CCC[C@]12CC=CCCCC1(CCCC=CCCCOC(=O)N3CC[C@@](C(=O)N[C@@H](Cc4ccsc4)C(=O)N[C@@H](Cc4ccc(F)c(Br)c4)C(=O)N[C@@H](C)C(N)=O)(C3)NC(=O)[C@H](C(C)C)NC(=O)[C@H](Cc3ccccc3)NC(=O)[C@H](C)NC(=O)[C@H](CCC(N)=O)NC(=O)[C@H](Cc3cccc(C(=O)O)c3)NC(=O)[C@H](CC(=O)O)NC1=O)NC(=O)[C@H](CC(C)(C)C)NC(=O)[C@H](CC(=O)O)NC2=O (stereo partly drawn) [I-2288, Ac-PL3-Asp-Npg-B5-Asp-3COOHF-Gln-Ala-Phe-Val-PyrS2-3Thi-3Br4FF-Ala-NH2] |  |  |
| > 20 µM | 45 nM | C[C@@H]1NC(=O)[C@H](C)NC(=O)[C@H](CC(=O)O)NC(=O)[C@H](CC(=O)O)NC(=O)C2(CCCC=CCCCOC(=O)N3CC[C@@](C(=O)N[C@@H](Cc4ccsc4)C(=O)N[C@@H](Cc4csc5ccccc45)C(=O)N[C@@H](CCC(N)=O)C(N)=O)(C3)NC(=O)[C@H](CC(N)=O)NC(=O)[C@H](Cc3ccccc3)NC1=O)CCCC=CCOc1cccc(c1)C(=O)N[C@@H](CC(=O)O)C(=O)N[C@@H](CC(C)(C)C)C(=O)N2 (stereo partly drawn) [I-2306, BzAm3Oallyl-Asp-Npg-B5-Asp-Asp-Ala-Ala-Phe-Asn-PyrS2-3Thi-BztA-Gln-NH2] |  |  |
| 19.8 µM | 18 nM | CC(=O)N1CCC[C@]12CC=CCCCC1(CCCC=CCCCOC(=O)N3CC[C@@](C(=O)N[C@@H](Cc4ccccc4Cl)C(=O)N[C@@H](Cc4csc5ccccc45)C(=O)N[C@@H](CC(C)C)C(N)=O)(C3)NC(=O)[C@H](CO)NC(=O)[C@H](Cc3ccccc3)NC(=O)[C@H](C)NC(=O)[C@H](C)NC(=O)[C@H](CC(=O)O)NC(=O)[C@H](CC(=O)O)NC1=O)NC(=O)[C@H](CC1CCCCC1)NC(=O)[C@H](CC(=O)O)NC2=O (stereo partly drawn) [I-1138, Ac-PL3-Asp-Cha-B5-Asp-Asp-Ala-Ala-Phe-Ser-PyrS2-2C1F-BztA-Leu-NH2] |  |  |
| > 20 µM | 274 nM | CC(=O)N1CCC[C@]12CCCCCCC1(CCCCCCCCOC(=O)N3CC[C@@](C(=O)N[C@@H](Cc4ccccc4C)C(=O)N[C@@H](Cc4csc5ccccc45)C(=O)N[C@@H](CCC(N)=O)C(N)=O)(C3)NC(=O)[C@H](CC(C)C)NC(=O)[C@H](Cc3ccccc3)NC(=O)[C@H](C)NC(=O)[C@H](C)NC(=O)[C@H](CN(CC(=O)O)CC(F)(F)F)NC(=O)[C@H](CC(=O)O)NC1=O)NC(=O)[C@H](CC(C)(C)C)NC(=O)[C@H](CC(=O)O)NC2=O (stereo partly drawn) [I-1726, Ac-PL3-Asp-Npg-B5-Asp-TfeGA-Ala-Ala-Phe-Leu-PyrS2-2MeF-BztA-Gln-NH2] |  |  |
